According to ChEMBL document CHEMBL1132671, “The synthesis of a new class of oxytocin antagonists” (Bioorg Med Chem Lett, 1999):
pKi: −log10 of the molar value. Active and inactive are the calls of the source. The rule behind the calls is not given here.

Legend:
[1] = molecular target: T1, Oxytocin receptor (Homo sapiens, UniProt P30559); assay: […] antagonistic activity against cloned human oxytocin receptor over-expressed in a stable HEK293 cell line; type: functional
T1 sequence (P30559 whole entry): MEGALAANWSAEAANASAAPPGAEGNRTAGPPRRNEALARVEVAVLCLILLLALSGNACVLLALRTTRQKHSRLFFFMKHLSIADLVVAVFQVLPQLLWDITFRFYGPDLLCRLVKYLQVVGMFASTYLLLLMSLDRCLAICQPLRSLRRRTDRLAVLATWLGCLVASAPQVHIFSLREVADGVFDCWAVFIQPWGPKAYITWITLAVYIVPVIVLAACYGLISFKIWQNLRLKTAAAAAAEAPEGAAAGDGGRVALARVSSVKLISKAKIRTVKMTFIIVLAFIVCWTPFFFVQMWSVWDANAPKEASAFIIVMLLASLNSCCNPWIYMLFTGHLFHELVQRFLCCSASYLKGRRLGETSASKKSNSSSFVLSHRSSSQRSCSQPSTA

[2] = species: Rattus norvegicus; assay: Dose inhibiting the response of a dose of oxytocin to half of the response in rat; type: functional; details: for ED50: Rattus norvegicus, read-out: ID50 (the source's name)
[3] = species: Rattus norvegicus; assay: Dose inhibiting the response of a dose of oxytocin to half of the response in rat;NA means no activity.; type: functional, organism-based

Row | Structure (SMILES) | pKi [1] | ID50 [2] [nmol/kg] | ED50 [2] [µmol/kg] | ID50 [3]
1 | CC[C@@H](C)[C@@H]1NC(=O)[C@H]([C@@H](C)CC)NC(=O)[C@@H](Cc2c[nH]c3ccccc23)NC(=O)CCCSCC(CCCN)NC(=O)[C@H](CC(N)=O)NC1=O (single isomer, unassigned) | 7.59 | 32 | – | –
2 | CC[C@@H](C)[C@@H]1NC(=O)[C@H]([C@@H](C)CC)NC(=O)[C@@H](Cc2c[nH]c3ccccc23)NC(=O)CCSCC[C@@H](C(N)=O)NC(=O)[C@H](CC(N)=O)NC1=O | – | – | 0.048 | –
3 | CC[C@@H](C)[C@@H]1NC(=O)[C@H]([C@@H](C)CC)NC(=O)[C@@H](Cc2c[nH]c3ccccc23)NC(=O)CCCSCC2CCCN2C(=O)[C@H](CC(N)=O)NC1=O (single isomer, unassigned) | 6.00 | – | – | inactive
4 | CC[C@@H](C)[C@@H]1NC(=O)[C@H]([C@@H](C)CC)NC(=O)[C@@H](Cc2c[nH]c3ccccc23)NC(=O)CCSCC[C@@H](C(=O)N(C)[C@@H](CCCN)C(N)=O)NC(=O)[C@H](CC(N)=O)NC1=O | – | – | 0.0029 | –
5 | CC[C@@H](C)[C@@H]1NC(=O)[C@H]([C@@H](C)CC)NC(=O)[C@@H](Cc2c[nH]c3ccccc23)NC(=O)CCCSC[C@H](CCCN)NC(=O)[C@H](CC(N)=O)NC1=O | 8.40 | 5.4 | – | –
6 | CC[C@@H](C)[C@@H]1NC(=O)[C@H]([C@@H](C)CC)NC(=O)[C@@H](Cc2c[nH]c3ccccc23)NC(=O)CCCSCC(CCCCN)NC(=O)[C@H](CC(N)=O)NC1=O (single isomer, unassigned) | 8.55 | – | 0.017 | –
